Source: PubChem BioAssay AID2060600 (Molecular Pharmacology Branch, DTP, NCI, 2025)
Where “and” joins values, the source holds several entries; their conditions need not be identical. Equal values may be shown once.

Tested on: 996289-038-R-J1-PDC complex spheroid viability
Experiment: Anticancer human tumor 996289-038-R-J1-PDC patient-derived colon adenocarcinoma cell line growth inhibition [CLK]
Conditions: for viability, T/C: stronger effect = lower value; active = viability on the fitted dose curve at most 10% of control; inactive = the rest
In short: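 Multi-cell-type spheroids combined patient-derived tumor cells with HUVEC endothelial cells and human mesenchymal stem cells. Paired agents were dosed in half-log steps down from about clinical Cmax, or from 10 microM where Cmax was unknown.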

[1] = curve of first compound, second compound 0.0316 µM
[2] = curve of first compound, second compound 0.1 µM
[3] = curve of first compound, second compound 0.316 µM
[4] = curve of first compound, second compound 1 µM
[5] = curve of first compound, second compound 3.16 µM
[6] = curve of first compound, second compound 10 µM
[7] = second compound 0.0316 µM, first compound 0.0316 µM
[8] = second compound 0.0316 µM, first compound 0.1 µM
[9] = second compound 0.0316 µM, first compound 0.316 µM
[10] = second compound 0.0316 µM, first compound 1 µM
[11] = second compound 0.0316 µM, first compound 3.16 µM
[12] = second compound 0.0316 µM, first compound 10 µM
[13] = second compound 0.1 µM, first compound 0.0316 µM
[14] = second compound 0.1 µM, first compound 0.1 µM
[15] = second compound 0.1 µM, first compound 0.316 µM
[16] = second compound 0.1 µM, first compound 1 µM
[17] = second compound 0.1 µM, first compound 3.16 µM
[18] = second compound 0.1 µM, first compound 10 µM
[19] = second compound 0.316 µM, first compound 0.0316 µM
[20] = second compound 0.316 µM, first compound 0.1 µM
[21] = second compound 0.316 µM, first compound 0.316 µM
[22] = second compound 0.316 µM, first compound 1 µM
[23] = second compound 0.316 µM, first compound 3.16 µM
[24] = second compound 0.316 µM, first compound 10 µM
[25] = second compound 1 µM, first compound 0.0316 µM
[26] = second compound 1 µM, first compound 0.1 µM
[27] = second compound 1 µM, first compound 0.316 µM
[28] = second compound 1 µM, first compound 1 µM
[29] = second compound 1 µM, first compound 3.16 µM
[30] = second compound 1 µM, first compound 10 µM
[31] = second compound 3.16 µM, first compound 0.0316 µM
[32] = second compound 3.16 µM, first compound 0.1 µM
[33] = second compound 3.16 µM, first compound 0.316 µM
[34] = second compound 3.16 µM, first compound 1 µM
[35] = second compound 3.16 µM, first compound 3.16 µM
[36] = second compound 3.16 µM, first compound 10 µM
[37] = second compound 10 µM, first compound 0.0316 µM
[38] = second compound 10 µM, first compound 0.1 µM
[39] = second compound 10 µM, first compound 0.316 µM
[40] = second compound 10 µM, first compound 1 µM
[41] = second compound 10 µM, first compound 3.16 µM
[42] = second compound 10 µM, first compound 10 µM
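Note: spheroids exposed to the agents for 7 days before readout.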

CC1COCCN1c1cc(C2(S(C)(=N)=O)CC2)nc(-c2ccnc3[nH]ccc23)n1 (stereo not drawn) + CNC(=O)c1ccc(Nc2nc(OC3CCCC3)c3c(-c4ccc5nc(C)oc5c4)c[nH]c3n2)c(OC)c1
2.13 µM: IC50 [6]
2.84 µM: IC50 [5]
> 10 µM: IC50 [1] | IC50 [2] | IC50 [3]
3.67 µM: IC50 [4]
inactive: viability, T/C [7] 116% | viability, T/C [8] 126% | viability, T/C [9] 118% | viability, T/C [10] 117% | viability, T/C [11] 122% | viability, T/C [12] 100% | viability, T/C [13] 129% | viability, T/C [14] 135% | viability, T/C [15] 129% | viability, T/C [16] 122% | viability, T/C [17] 121% | viability, T/C [18] 88.1% | viability, T/C [19] 84.8% | viability, T/C [20] 83% | viability, T/C [21] 79.4% | viability, T/C [22] 73.2% | viability, T/C [23] 73.8% | viability, T/C [24] 58.5% | viability, T/C [25] 70.3% | viability, T/C [26] 71.5% | viability, T/C [27] 68.8% | viability, T/C [28] 57.5% | viability, T/C [29] 54.2% | viability, T/C [30] 36.9% | viability, T/C [31] 68.5% | viability, T/C [32] 60.9% | viability, T/C [33] 55.8% | viability, T/C [34] 64% | viability, T/C [35] 46% | viability, T/C [36] 39.8% | viability, T/C [37] 59.3% | viability, T/C [38] 55.7% | viability, T/C [39] 57% | viability, T/C [40] 53.7% | viability, T/C [41] 48.1% | viability, T/C [42] 31%

COc1ccc([C@@H](O)c2cc(-c3ncnc4cc(N5CCOCC5)ccc34)c(F)cc2Cl)nn1 + CN1CCN(c2cc(C(=O)Nc3cc4cc(-c5cnn(C)c5)ccc4cn3)ccn2)CC1
active: viability, T/C [25] 3.25% | viability, T/C [26] 3.83% | viability, T/C [27] 3.78% | viability, T/C [28] 4.19% | viability, T/C [29] 3.66% | viability, T/C [30] 3.61% | viability, T/C [31] 1.19% | viability, T/C [32] 0.85% | viability, T/C [33] 1.09% | viability, T/C [34] 1.26% | viability, T/C [35] 2.9% | viability, T/C [36] 2.02% | viability, T/C [37] 0.92% | viability, T/C [38] 0.41% | viability, T/C [39] 1.74% | viability, T/C [40] 0.52% | viability, T/C [41] 0.52% | viability, T/C [42] 0.65%
3.19 µM: IC50 [3]
6.69 µM: IC50 [2]
> 10 µM: IC50 [1]
< 0.0316 µM: IC50 [4] | IC50 [5] | IC50 [6]
inactive: viability, T/C [7] 93.2% | viability, T/C [8] 94.8% | viability, T/C [9] 91.7% | viability, T/C [10] 85.7% | viability, T/C [11] 76.6% | viability, T/C [12] 50.2% | viability, T/C [13] 85.3% | viability, T/C [14] 95.1% | viability, T/C [15] 87.8% | viability, T/C [16] 79.8% | viability, T/C [17] 67.7% | viability, T/C [18] 40.8% | viability, T/C [19] 61.1% | viability, T/C [20] 64.8% | viability, T/C [21] 61.9% | viability, T/C [22] 59.8% | viability, T/C [23] 49.8% | viability, T/C [24] 27.1%

Nc1ccn(C2OC(CO)C(O)C2(F)F)c(=O)n1 (stereo not drawn)
inactive: viability, T/C (compound 0.0316 µM) 82% and 89.3% | viability, T/C (compound 0.1 µM) 62.9% and 70.5% | viability, T/C (compound 0.316 µM) 62.4% and 68.2% | viability, T/C (compound 1 µM) 55.8% and 65.7% | viability, T/C (compound 3.16 µM) 54.8% and 69.3% | viability, T/C (compound 10 µM) 47% and 59%
> 10 µM: IC50 (curve of compound)

C#Cc1c(F)ccc2cc(O)cc(-c3ncc4c(N5CC6CCC(C5)N6)nc(OCC56CCCN5CC(F)C6)nc4c3F)c12 (stereo not drawn)
1.58 µM and 1 µM: IC50 (curve of compound)
inactive: viability, T/C (compound 0.0316 µM) 95.8% and 98.9% | viability, T/C (compound 0.1 µM) 80.1% and 91.3% | viability, T/C (compound 0.316 µM) 65.1% and 73.6% | viability, T/C (compound 1 µM) 59.3% and 49.8% | viability, T/C (compound 3.16 µM) 41.1% and 37.4% | viability, T/C (compound 10 µM) 30.7% and 33.3%
